Usually IC50 stands for the concentration needed to halve the response being measured. For orientation: inhibition means how much of the control response was suppressed. Lower therefore signals a response near the control.

Experimental findings from patent US9791456B2, “Method for measuring ATR inhibition mediated increases in DNA damage” (Vertex Pharmaceuticals Incorporated, priority 2012, dated 2017) are described below.

Common to all, as to format: cell-based
For assay [1], the target named is T1, ATR (Homo sapiens, UniProt Q13535).
T1 construct: PBMCs were purified from fresh whole human blood; endogenous in cells; host or cells: human PBMCs / lymphocytes from fresh whole blood of healthy volunteers
Briefly: ATR inhibition in PBMCs after treatment of human whole blood with 4-nitroquinoline, immunofluorescence. The settings on record: 240 μM 4-nitroquinoline 1 and 2 hr, 1 or 10 μM compound.
Description: Blood from healthy volunteers was collected by venepuncture into EDTA-coated blood collection tubes. […] Following 1 or 2 hours incubation (as indicated) at 37° C. the blood mixture was transferred into 15 ml falcon tubes containing 2 mls FICOLL-PAQUE PLUS™ and the PBMCs separated using centrifugation through a FICOLL-PAQUE PLUS™ separation gradient. PBMCs were collected and washed twice using 10 mls PBS and resuspended in 1 ml PBS. PBMCs were counted using a haemocytometer and 1×10^5 PBMCs were centrifuged onto microscope slides using a CYTOSPIN 2™ centrifuge (Shandon) for 5 minutes at 450 rpm. Cells were fixed using 4% (w/v) paraformaldehyde for 20 minutes and permeablised using 0.5% (v/v) Triton-X-100 for 30 minutes. […] These were detected using the appropriate secondary antibodies diluted in 1% (w/v) BSA in PBS: anti-rabbit AlexaFluor 546 (Invitrogen, 1:1000) and anti-mouse AlexaFluor 546 (Invitrogen, 1:1000). […] Mean nuclear fluorescence for at least 50 nuclei was measured using Image) software (National Institutes of Health, USA) and the data analysed using GraphPad Prism software version 6.0.

Assay [2] has as its target T2, ATR (Mus musculus, UniProt Q9JKK8).
T2 construct: Whole human or mouse blood was collected in heparinised tubes; endogenous in cells; host or cells: lymphocytes in whole mouse blood ex vivo
Briefly: ATR inhibition in whole mouse blood ex vivo: 4-nitroquinoline stimulated H2AX phosphorylation in lymphocytes, flow cytometry.
Description: The samples were mixed by agitation, incubated for 10 min at 37° C. and stimulated with 62 uM (human) or 124 uM (mouse) 4-nitroquinoline for 1 h at 37° C. The samples were then fixed and red blood cells were lysed using Lyse/Fix Buffer (BD) for 5-10 min and white blood cells were collected by centrifugation according to the manufacturer's instructions. The samples were then transferred into 96 well round bottom plates and permeabilised using Triton X-100 according to method i). H2AX phosphorylation was then analysed by flow cytometry according to method i) with selection of lymphocytes using either standard scatterplot gating or CD3 staining. For specific analysis of H2AX phosphorylation in CD3 positive lymphocytes, cells were stained with 1:2.5 diluted PE-conjugated anti-human CD3 (BD) (human) and 1:50 diluted APC-conjugated anti-mouse CD3 (BD) (mouse) in place of propidium iodide and analyses of P-H2AX were performed on the CD3-positive population.

Assay [3] relates to pChk1^Ser345 and γH2AX in MCF7 cells. Briefly: Evaluation of optimal 4-nitroquinoline concentration in MCF7 cells, immunofluorescence. The settings on record: 0.1-10 μM 4-nitroquinoline, 2 hours. As for the experimental part: Coverslips were sterilised in methanol and placed in the bottom of a 6-well culture dish. 2×10^5 MCF7 cells were seeded into each well of a 6-well culture dish in culture medium (RPMI-1640 with 10% FBS and 1% penicillin and streptomycin) and allowed to adhere for 24 hours. Medium was replaced by fresh medium containing 4-nitroquinoline (0.1-10 μM) and incubated at 37° C. for 2 hours. Cells were washed in PBS, fixed using 4% (w/v) paraformaldehyde for 20 minutes at room temperature and permeablised using 0.5% (v/v) Triton-X-100 for 30 minutes at room temperature. Permeablised cells were blocked using 10% (v/v) goat serum and 5% (w/v) BSA in PBS for 1 hour, the coverslips removed and subjected to immunofluorescent analysis using primary antibodies diluted in 1% (w/v) BSA in PBS overnight at 4° C.: rabbit anti-pChk1^Ser345 (133D3, Cell Signaling Technology, 1:300) and mouse anti-phospho-Histone H2AX^Ser139 (JBW301, Millipore, 1:1000). These were detected using the appropriate secondary antibodies diluted in 1% (w/v) BSA in PBS for 1 hour at room temperature protected from light: anti-rabbit AlexaFluor 546 (Invitrogen, 1:1000) and anti-mouse AlexaFluor 546 (Invitrogen, 1:1000). […] Mean nuclear fluorescence for at least 50 nuclei was measured using Image) software (National Institutes of Health, USA) and the data analysed using GraphPad Prism software version 6.0.

For assay [4], the system named is pChk1^Ser345 and γH2AX in PBMCs. As to the kind of experiment: Evaluation of optimal 4-nitroquinoline concentration in PBMCs from treated human whole blood, immunofluorescence. The settings on record: 240 μM 4-nitroquinoline, 2 hours. As for the experimental part: Blood from healthy volunteers was collected by venepuncture into EDTA-coated blood collection tubes. 2 mls of blood per treatment was transferred into 1 well of a 6-well plates already containing 2 mls PBS containing 2% (v/v) FBS and DMSO or 4-nitroquinoline (60, 120, 240, 480 μM final concentration). Following 2 hours incubation at 37° C. the blood mixture was transferred into 15 ml falcon tubes containing 2 mls FICOLL-PAQUE PLUS™ and the PBMCs separated using centrifugation through a FICOLL-PAQUE PLUS™ separation gradient. PBMCs were collected and washed twice using 10 mls PBS and resuspended in 1 ml PBS. PBMCs were counted using a haemocytometer and 1×10^5 PBMCs were centrifuged onto microscope slides using a CYTOSPIN 2™ centrifuge (Shandon) for 5 minutes at 450 rpm. Cells were fixed using 4% (w/v) paraformaldehyde for 20 minutes and permeablised using 0.5% (v/v) Triton-X-100 for 30 minutes. […] These were detected using the appropriate secondary antibodies diluted in 1% (w/v) BSA in PBS: anti-rabbit AlexaFluor 546 (Invitrogen, 1:1000) and anti-mouse AlexaFluor 546 (Invitrogen, 1:1000). […] Mean nuclear fluorescence for at least 50 nuclei was measured using Image) software (National Institutes of Health, USA) and the data analysed using GraphPad Prism software version 6.0.

Assay [5] deals with ATR-dependent phosphorylation events. As to the kind of experiment: 4-nitroquinoline induction of ATR-dependent phosphorylation events in cell lines and isolated PBMCs. As for the experimental part:
PBMCs were purified from fresh whole human blood using FICOLL-PAQUE™ density gradient centrifugation. Cells were counted and seeded at 5×10(5) per well in a round bottom 96 well plate in RPMI medium supplemented with 10% foetal calf serum (FCS) and penicillin/streptomycin/glutamine (PSQ). […] Washed cells were then fixed with 4% paraformaldehyde for 10 min, permeabilised with 0.5% Triton X-100 for 10 min and analysed for Histone H2AX S139 phosphorylation by flow cytometry on the using 1:200 diluted anti-γH2AX primary antibody clone JBW301 (Millipore), 1:500 goat anti-mouse Alexa Fluor488 (Invitrogen) and propidium iodide DNA staining.
Blood from healthy volunteers was collected by venepuncture into EDTA-coated blood collection tubes. […] PBMCs were collected using centrifugation, washed in 1 ml PBS then resuspended in 1 ml PBS before being counted using a haemocytometer. […] These were detected using the appropriate secondary antibodies diluted in 1% (w/v) BSA in PBS for 1 hour at room temperature protected from the light: anti-rabbit AlexaFluor 488 (Invitrogen, 1:1000) and anti-mouse AlexaFluor 546 (Invitrogen, 1:1000). […] Mean nuclear fluorescence for at least 50 nuclei was measured using ImageJ software (National Institutes of Health, USA) and the data analysed using GraphPad Prism software version 6.0. […]

For assay [6], the system named is pChk1^Ser345 in MCF7 cells. As to the kind of experiment: UV induced phosphorylation of Chk1 in MCF7 cells over time, immunofluorescence. The settings on record: 20 J/m^2 UV. As to the method:
(§1) Coverslips were sterilised in methanol and placed in the bottom of a 6-well culture dish. 2×10^5 MCF7 cells were seeded into each well of a 6-well culture dish in culture medium (RPMI-1640 with 10% FBS and 1% penicillin and streptomycin) and allowed to adhere for 24 hours. […] Cells were exposed to 20 J/m^2 UV using a […]-2400' (Stratagene). Cells were incubated at 37° C. for 0.5, 1 and 3 hours at which points they were washed with 2 mls PBS and fixed. Cells were fixed using 4% (w/v) paraformaldehyde for 20 minutes at room temperature and permeablised using 0.5% (v/v) Triton-X-100 for 30 minutes at room temperature. […] These were detected using the appropriate secondary antibodies diluted in 1% (w/v) BSA in PBS for 1 hour at room temperature protected from light: anti-rabbit AlexaFluor 546 (Invitrogen, 1:1000) or anti-mouse AlexaFluor 546 (Invitrogen, 1:1000). Coverslips were washed three times for 10 minutes in PBS after incubation with each antibody. DNA was stained using […] with DAPI (Vector Laboratories). Images were captured using a Zeiss LSM 700 confocal microscope (Zeiss) with Zen 2009 software (Zeiss) using and ×40 lens and wavelengths of 405 nm and 561 nm. Mean nuclear fluorescence for at least 50 nuclei was measured using Image) software (National Institutes of Health, USA) and the data analysed using GraphPad Prism software version 6.0.

The subject of assay [7] is γH2AX in MCF7 cells. Briefly: 4-nitroquinoline induced phosphorylation of H2AX in MCF7 cells over time, immunofluorescence. The settings on record: Homo sapiens, 2.5 μM 4-nitroquinoline. As for the experimental part: (§2) Coverslips were sterilised in methanol and placed in the bottom of a 6-well culture dish. 2×10^5 MCF7 cells were seeded into each well of a 6-well culture dish in culture medium (RPMI-1640 with 10% FBS and 1% penicillin and streptomycin) and allowed to adhere for 24 hours. […] Cells were incubated at 37° C. for 0.5, 1 and 3 hours at which points they were washed with 2 mls PBS and fixed. Cells were fixed using 4% (w/v) paraformaldehyde for 20 minutes at room temperature and permeablised using 0.5% (v/v) Triton-X-100 for 30 minutes at room temperature. […] These were detected using the appropriate secondary antibodies diluted in 1% (w/v) BSA in PBS for 1 hour at room temperature protected from light: anti-rabbit AlexaFluor 546 (Invitrogen, 1:1000) or anti-mouse AlexaFluor 546 (Invitrogen, 1:1000). Coverslips were washed three times for 10 minutes in PBS after incubation with each antibody. DNA was stained using […] with DAPI (Vector Laboratories). Images were captured using a Zeiss LSM 700 confocal microscope (Zeiss) with Zen 2009 software (Zeiss) using and ×40 lens and wavelengths of 405 nm and 561 nm. Mean nuclear fluorescence for at least 50 nuclei was measured using Image) software (National Institutes of Health, USA) and the data analysed using GraphPad Prism software version 6.0.

Assay [8] addresses T1, ATR. Briefly: ATR inhibition in PBMCs after treatment of human whole blood with UV, immunofluorescence. The settings on record: 50 J/m^2 UV, 10 μM VE-821.
Description: Blood from healthy volunteers was collected by venepuncture into EDTA-coated blood collection tubes. […] Following 1 hour incubation at 37° C. and 5% CO2, blood was exposed to 50 J/m^2 UV light. Following 1 hour further incubation the blood mixture was transferred into 15 ml falcon tubes containing 2 mls FICOLL-PAQUE PLUS™ and the PBMCs separated using centrifugation through a FICOLL-PAQUE PLUS™ separation gradient. PBMCs were collected and washed twice using 10 mls PBS and resuspended in 1 ml PBS. PBMCs were counted using a haemocytometer and 1×10^5 PBMCs were centrifuged onto microscope slides using a CYTOSPIN 2™ centrifuge (Shandon) for 5 minutes at 450 rpm. Cells were fixed using 4% (w/v) paraformaldehyde for 20 minutes and permeablised using 0.5% (v/v) Triton-X-100 for 30 minutes. […] These were detected using the appropriate secondary antibodies diluted in 1% (w/v) BSA in PBS for 1 hour at room temperature protected from the light: anti-rabbit AlexaFluor 488 (Invitrogen, 1:1000) and anti-mouse AlexaFluor 546 (Invitrogen, 1:1000). […] Mean nuclear fluorescence for at least 50 nuclei was measured using Image) software (National Institutes of Health, USA) and the data analysed using GraphPad Prism software version 6.0.
The target in assay [9] is T1, ATR. Briefly: ATR inhibition in purified PBMCs from human whole blood after DNA damaging agents, immunofluorescence. The settings on record: UV or 4-nitroquinoline, 10 μM VE-821.
Description: Blood from healthy volunteers was collected by venepuncture into EDTA-coated blood collection tubes. 2×10 ml aliquots of blood was diluted 1:1 in PBS and transferred into 50 ml falcon tubes containing 10 mls FICOLL-PAQUE PLUS™ (GE Healthcare). PBMCs were separated using centrifugation through a FICOLL-PAQUE PLUS™ separation gradient. PBMCs from each tube were collected separately and washed twice with 20 mls PBS before being pooled and resuspended in 20 mls culture medium (RPMI-1640 with 10% FBS). 2 mls of PBMC suspension per treatment were transferred into one well of a 6-well culture dish. […] PBMCs were collected using centrifugation, washed in 1 ml PBS then resuspended in 1 ml PBS before being counted using a haemocytometer. 1×10^5 PBMCs were centrifuged onto microscope slides using a CYTOSPIN 2™ centrifuge (Shandon) for 5 minutes at 450 rpm. […] These were detected using the appropriate secondary antibodies diluted in 1% (w/v) BSA in PBS for 1 hour at room temperature protected from the light: anti-rabbit AlexaFluor 488 (Invitrogen, 1:1000) and anti-mouse AlexaFluor 546 (Invitrogen, 1:1000). […] Mean nuclear fluorescence for at least 50 nuclei was measured using ImageJ software (National Institutes of Health, USA) and the data analysed using GraphPad Prism software version 6.0.
Assay [10] concerns pChk1^Ser345 in MCF7 cells. As to the kind of experiment: 4-nitroquinoline induced phosphorylation of Chk1 in MCF7 cells over time, immunofluorescence. The settings on record: Homo sapiens, 2.5 μM 4-nitroquinoline, 10 μM VE-821, for up to 3 hr. As to the method:
as §2

The subject of assay [11] is γH2AX in MCF7 cells. As to the kind of experiment: UV induced phosphorylation of H2AX in MCF7 cells over time, immunofluorescence. The settings on record: 20 J/m^2 UV. As for the experimental part:
as §1

T1 sequence (Q13535 whole entry): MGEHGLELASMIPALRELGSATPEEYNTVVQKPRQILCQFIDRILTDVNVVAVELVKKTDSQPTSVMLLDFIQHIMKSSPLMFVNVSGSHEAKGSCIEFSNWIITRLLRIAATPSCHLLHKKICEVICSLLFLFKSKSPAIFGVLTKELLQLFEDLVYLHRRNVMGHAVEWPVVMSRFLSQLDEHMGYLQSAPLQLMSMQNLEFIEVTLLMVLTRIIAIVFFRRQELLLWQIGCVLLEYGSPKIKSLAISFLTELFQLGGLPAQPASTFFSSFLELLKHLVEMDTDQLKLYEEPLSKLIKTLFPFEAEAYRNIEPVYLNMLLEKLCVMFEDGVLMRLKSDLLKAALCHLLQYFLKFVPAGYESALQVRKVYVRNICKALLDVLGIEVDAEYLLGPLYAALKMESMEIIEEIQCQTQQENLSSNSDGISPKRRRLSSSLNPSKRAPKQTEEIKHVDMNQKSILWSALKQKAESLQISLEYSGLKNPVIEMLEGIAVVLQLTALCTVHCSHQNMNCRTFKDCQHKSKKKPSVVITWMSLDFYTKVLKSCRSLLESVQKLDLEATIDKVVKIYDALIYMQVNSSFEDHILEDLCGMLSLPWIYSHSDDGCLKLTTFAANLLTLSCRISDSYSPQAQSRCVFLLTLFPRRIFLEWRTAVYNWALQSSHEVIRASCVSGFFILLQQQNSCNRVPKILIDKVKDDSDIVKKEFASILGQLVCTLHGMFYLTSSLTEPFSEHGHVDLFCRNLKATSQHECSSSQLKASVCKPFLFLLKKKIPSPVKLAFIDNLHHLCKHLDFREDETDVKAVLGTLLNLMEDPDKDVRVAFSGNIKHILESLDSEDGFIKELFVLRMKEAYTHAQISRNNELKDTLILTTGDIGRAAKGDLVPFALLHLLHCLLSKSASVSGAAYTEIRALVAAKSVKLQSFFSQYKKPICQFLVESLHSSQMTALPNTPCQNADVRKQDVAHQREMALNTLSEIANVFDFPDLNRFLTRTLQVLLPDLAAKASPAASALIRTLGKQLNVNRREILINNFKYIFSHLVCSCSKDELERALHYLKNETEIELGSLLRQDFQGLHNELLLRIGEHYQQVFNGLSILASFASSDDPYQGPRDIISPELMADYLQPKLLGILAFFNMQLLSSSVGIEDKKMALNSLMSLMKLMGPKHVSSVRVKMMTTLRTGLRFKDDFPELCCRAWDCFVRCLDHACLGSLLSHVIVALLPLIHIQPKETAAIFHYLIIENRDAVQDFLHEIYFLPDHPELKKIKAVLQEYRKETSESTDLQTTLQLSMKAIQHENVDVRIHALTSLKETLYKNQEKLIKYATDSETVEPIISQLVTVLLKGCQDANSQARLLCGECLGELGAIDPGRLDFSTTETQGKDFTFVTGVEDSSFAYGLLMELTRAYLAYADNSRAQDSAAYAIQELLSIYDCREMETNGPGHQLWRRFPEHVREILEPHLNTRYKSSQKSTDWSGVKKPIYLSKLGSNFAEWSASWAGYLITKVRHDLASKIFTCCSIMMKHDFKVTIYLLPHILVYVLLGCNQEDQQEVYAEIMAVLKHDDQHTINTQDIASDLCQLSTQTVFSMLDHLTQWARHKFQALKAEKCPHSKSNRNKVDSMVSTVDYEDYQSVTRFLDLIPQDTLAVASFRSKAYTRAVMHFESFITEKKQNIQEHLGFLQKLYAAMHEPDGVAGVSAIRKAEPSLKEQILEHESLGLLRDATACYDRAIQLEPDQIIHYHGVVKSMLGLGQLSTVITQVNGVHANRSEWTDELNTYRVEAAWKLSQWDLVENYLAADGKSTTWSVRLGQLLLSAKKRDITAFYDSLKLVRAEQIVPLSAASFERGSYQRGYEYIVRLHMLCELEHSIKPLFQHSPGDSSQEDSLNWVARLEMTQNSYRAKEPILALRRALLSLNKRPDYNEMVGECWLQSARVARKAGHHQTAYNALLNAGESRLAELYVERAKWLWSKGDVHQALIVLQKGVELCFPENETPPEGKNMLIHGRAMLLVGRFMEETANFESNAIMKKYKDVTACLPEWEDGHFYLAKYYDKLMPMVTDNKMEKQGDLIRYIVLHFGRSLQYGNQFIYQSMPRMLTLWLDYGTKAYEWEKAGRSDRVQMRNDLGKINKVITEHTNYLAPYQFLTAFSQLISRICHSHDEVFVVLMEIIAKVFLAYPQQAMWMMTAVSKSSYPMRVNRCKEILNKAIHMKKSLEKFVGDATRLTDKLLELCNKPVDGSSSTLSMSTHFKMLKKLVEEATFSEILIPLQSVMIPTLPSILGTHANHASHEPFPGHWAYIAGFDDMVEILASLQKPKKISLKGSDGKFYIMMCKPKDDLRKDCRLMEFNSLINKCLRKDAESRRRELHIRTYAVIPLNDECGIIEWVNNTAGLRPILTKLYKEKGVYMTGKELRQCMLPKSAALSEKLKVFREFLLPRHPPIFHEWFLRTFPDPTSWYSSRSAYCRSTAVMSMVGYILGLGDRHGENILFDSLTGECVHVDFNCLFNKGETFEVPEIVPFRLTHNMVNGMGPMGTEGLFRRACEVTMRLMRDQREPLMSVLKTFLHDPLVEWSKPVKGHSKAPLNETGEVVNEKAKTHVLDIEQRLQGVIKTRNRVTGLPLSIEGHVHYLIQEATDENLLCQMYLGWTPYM
T1 sequence (Q8WXE1 whole entry partner): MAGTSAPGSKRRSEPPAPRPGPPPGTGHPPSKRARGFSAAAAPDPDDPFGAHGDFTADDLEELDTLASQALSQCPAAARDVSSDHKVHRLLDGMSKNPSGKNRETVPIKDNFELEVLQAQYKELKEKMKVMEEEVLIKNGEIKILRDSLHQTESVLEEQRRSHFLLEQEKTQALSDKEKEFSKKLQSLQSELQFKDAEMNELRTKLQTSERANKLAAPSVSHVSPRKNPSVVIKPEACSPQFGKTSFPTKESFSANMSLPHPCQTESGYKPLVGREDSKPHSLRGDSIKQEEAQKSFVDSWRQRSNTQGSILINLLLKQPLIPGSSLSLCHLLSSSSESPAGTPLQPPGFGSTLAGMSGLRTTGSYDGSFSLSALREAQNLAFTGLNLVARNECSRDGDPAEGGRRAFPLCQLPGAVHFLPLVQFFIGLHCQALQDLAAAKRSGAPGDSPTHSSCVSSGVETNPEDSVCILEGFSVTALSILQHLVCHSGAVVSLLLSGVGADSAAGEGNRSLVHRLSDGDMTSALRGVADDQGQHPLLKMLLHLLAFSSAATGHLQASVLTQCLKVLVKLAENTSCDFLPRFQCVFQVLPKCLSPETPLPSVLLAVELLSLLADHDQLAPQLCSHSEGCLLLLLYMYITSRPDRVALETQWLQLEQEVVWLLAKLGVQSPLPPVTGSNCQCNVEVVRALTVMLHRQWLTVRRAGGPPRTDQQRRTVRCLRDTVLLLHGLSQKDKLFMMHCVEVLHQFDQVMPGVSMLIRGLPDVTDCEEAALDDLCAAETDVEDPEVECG

With `CNCc1ccc(-c2cc(-c3nc(-c4ccc(S(=O)(=O)C(C)C)cc4)cnc3N)on2)cc1` [VE-822], the “inhibition of 4-nitroquinoline-induced increases in γH2AX” value at ATR [1] was “inhibited by VE-822 in a concentration-dependent manner”. For the same compound, at ATR [2], the half-maximal inhibitory concentration (IC50) is 1000 nM.

For the compound `O=[N+]([O-])c1ccnc2ccccc12` [4-nitroquinoline], the “concentration required for pChk1^Ser345 and γH2AX induction compared with whole blood” value in assay [3] was “lower concentrations were required”. The “phosphorylation of pChk1^Ser345 and γH2AX (biomarker induction)” value in assay [4] is recorded as “improved phosphorylation”. In assay [5], the “concentration adequate to induce ATR-dependent phosphorylation events” value was at most 5 µM.

As to `CS(=O)(=O)c1ccc(-c2cnc(N)c(C(=O)Nc3ccccc3)n2)cc1` [VE-821], the “inhibition (of UV-induced Chk1 phosphorylation)” value is 70% in assay [6] (at 0.5 hr) and 55% in assay [6] (at 3 hr). Moreover, the inhibition at 10 µM with γH2AX in MCF7 cells [7] (10 μM VE-821, at 1 hr) is 70%; in the assay with γH2AX in MCF7 cells [7] (10 μM VE-821, at 3 hr) it was 40%; in [10], over 70%. Also, at ATR [8], the “inhibition of UV-induced pChk1^Ser345” value is “significant inhibition”. The “inhibition of UV-induced γH2AX” value on ATR [8] is reported as “significant inhibition”. The “level of pChk1^Ser345 signal after co-administering compound” value on ATR [9] is reported as “reduction”. The “level of γH2AX signal after co-administering compound” value on ATR [9] is “reduction”. In addition, the “inhibition of γH2AX” value in the assay on γH2AX in MCF7 cells [11] (at 0.5 hr) is 80%; with γH2AX in MCF7 cells [11] (at 3 hr), under 20%.
